From ChEMBL document CHEMBL1275456, “Metallo-beta-lactamase gene bla(IMP-15) in a class 1 integron, In95, from Pseudomonas aeruginosa clinical isolates from a hospital in Mexico” (2008)
≈ marks a conversion by molar mass, not a printed value.

Columns and labels:
Format in all cases: functional
Pseudomonas aeruginosa [1] = experiment: Antimicrobial activity against Pseudomonas aeruginosa clinical isolates assessed as resistant isolates by agar dilution method
Pseudomonas aeruginosa [2] = experiment: Antimicrobial activity against Pseudomonas aeruginosa blood isolate 4667 containing PFGE clone A expressing beta-lactamase IMP-15 by broth microdilution method
Pseudomonas aeruginosa [3] = experiment: Antimicrobial activity against Pseudomonas aeruginosa blood isolate 4677 containing PFGE clone A expressing beta-lactamase IMP-15 by broth microdilution method
Pseudomonas aeruginosa [4] = experiment: Antimicrobial activity against Pseudomonas aeruginosa secretion isolate 4682-1 containing PFGE clone A expressing beta-lactamase IMP-15 by broth microdilution method
Pseudomonas aeruginosa [5] = experiment: Antimicrobial activity against Pseudomonas aeruginosa catheter isolate 4696 containing PFGE clone A expressing beta-lactamase IMP-15 by broth microdilution method
Pseudomonas aeruginosa [6] = experiment: Antimicrobial activity against Pseudomonas aeruginosa urine isolate 4698 containing PFGE clone A expressing beta-lactamase IMP-15 by broth microdilution method
Pseudomonas aeruginosa [7] = experiment: Antimicrobial activity against Pseudomonas aeruginosa urine isolate 4706 containing PFGE clone A expressing beta-lactamase IMP-15 by broth microdilution method
Pseudomonas aeruginosa [8] = experiment: Antimicrobial activity against Pseudomonas aeruginosa secretion isolate 4658 containing PFGE clone A1 expressing beta-lactamase IMP-15 by broth microdilution method
Pseudomonas aeruginosa [9] = experiment: Antimicrobial activity against Pseudomonas aeruginosa pleural fluid isolate 4679 containing PFGE clone A1 expressing beta-lactamase IMP-15 by broth microdilution method
Pseudomonas aeruginosa [10] = experiment: Antimicrobial activity against Pseudomonas aeruginosa secretion isolate 4688 containing PFGE clone A1 expressing beta-lactamase IMP-15 by broth microdilution method
Pseudomonas aeruginosa [11] = experiment: Antimicrobial activity against Pseudomonas aeruginosa secretion isolate 4703 containing PFGE clone A1 expressing beta-lactamase IMP-15 by broth microdilution method
Pseudomonas aeruginosa [12] = experiment: Antimicrobial activity against Pseudomonas aeruginosa blood isolate 4659 containing PFGE clone A2 expressing beta-lactamase IMP-15 by broth microdilution method
Pseudomonas aeruginosa [13] = experiment: Antimicrobial activity against Pseudomonas aeruginosa catheter isolate 4680 containing PFGE clone A2 expressing beta-lactamase IMP-15 by broth microdilution method
Pseudomonas aeruginosa [14] = experiment: Antimicrobial activity against Pseudomonas aeruginosa urine isolate 4663 expressing beta-lactamase IMP-15 by broth microdilution method
Pseudomonas aeruginosa [15] = experiment: Antimicrobial activity against Pseudomonas aeruginosa secretion isolate 4682-1 containing PFGE clone A expressing beta-lactamase IMP-15 by broth microdilution method in presence of beta-lactamase inhibitor Tazobactam
Pseudomonas aeruginosa [16] = experiment: Antimicrobial activity against Pseudomonas aeruginosa catheter isolate 4696 containing PFGE clone A expressing beta-lactamase IMP-15 by broth microdilution method in presence of beta-lactamase inhibitor Tazobactam
Pseudomonas aeruginosa [17] = experiment: Antimicrobial activity against Pseudomonas aeruginosa urine isolate 4698 containing PFGE clone A expressing beta-lactamase IMP-15 by broth microdilution method in presence of beta-lactamase inhibitor Tazobactam; settings: isolate 4698, Urine
Pseudomonas aeruginosa [18] = experiment: Antimicrobial activity against Pseudomonas aeruginosa urine isolate 4706 containing PFGE clone A expressing beta-lactamase IMP-15 by broth microdilution method in presence of beta-lactamase inhibitor Tazobactam; settings: isolate 4706, Urine
Pseudomonas aeruginosa [19] = experiment: Antimicrobial activity against Pseudomonas aeruginosa secretion isolate 4658 containing PFGE clone A1 expressing beta-lactamase IMP-15 by broth microdilution method in presence of beta-lactamase inhibitor Tazobactam
Pseudomonas aeruginosa [20] = experiment: Antimicrobial activity against Pseudomonas aeruginosa pleural fluid isolate 4679 containing PFGE clone A1 expressing beta-lactamase IMP-15 by broth microdilution method in presence of beta-lactamase inhibitor Tazobactam; settings: isolate 4679, Pleural fluid
Pseudomonas aeruginosa [21] = experiment: Antimicrobial activity against Pseudomonas aeruginosa secretion isolate 4688 containing PFGE clone A1 expressing beta-lactamase IMP-15 by broth microdilution method in presence of beta-lactamase inhibitor Tazobactam
Pseudomonas aeruginosa [22] = experiment: Antimicrobial activity against Pseudomonas aeruginosa secretion isolate 4703 containing PFGE clone A1 expressing beta-lactamase IMP-15 by broth microdilution method in presence of beta-lactamase inhibitor Tazobactam
Pseudomonas aeruginosa [23] = experiment: Antimicrobial activity against Pseudomonas aeruginosa blood isolate 4659 containing PFGE clone A2 expressing beta-lactamase IMP-15 by broth microdilution method in presence of beta-lactamase inhibitor Tazobactam
Pseudomonas aeruginosa [24] = experiment: Antimicrobial activity against Pseudomonas aeruginosa catheter isolate 4680 containing PFGE clone A2 expressing beta-lactamase IMP-15 by broth microdilution method in presence of beta-lactamase inhibitor Tazobactam
Pseudomonas aeruginosa [25] = experiment: Antimicrobial activity against Pseudomonas aeruginosa urine isolate 4663 expressing beta-lactamase IMP-15 by broth microdilution method in presence of beta-lactamase inhibitor Tazobactam; settings: isolate 4663, Urine
Pseudomonas aeruginosa [26] = experiment: Antimicrobial activity against Pseudomonas aeruginosa clinical isolates assessed as resistant isolates by agar dilution method in presence of beta-lactamase inhibitor Tazobactam
Pseudomonas aeruginosa [27] = experiment: Antimicrobial activity against Pseudomonas aeruginosa blood isolate 4667 containing PFGE clone A expressing beta-lactamase IMP-15 by broth microdilution method in presence of beta-lactamase inhibitor Tazobactam
Pseudomonas aeruginosa [28] = experiment: Antimicrobial activity against Pseudomonas aeruginosa blood isolate 4677 containing PFGE clone A expressing beta-lactamase IMP-15 by broth microdilution method in presence of beta-lactamase inhibitor Tazobactam

With GENTAMICIN the Activity (Pseudomonas aeruginosa [1]) was 54%, the MIC (Pseudomonas aeruginosa [2]) was 128 mg/L and the MIC (Pseudomonas aeruginosa [3]) was over 128 mg/L. For the same compound, the MIC (Pseudomonas aeruginosa [4]) was over 128 mg/L, the MIC (Pseudomonas aeruginosa [5]) was over 128 mg/L and the MIC (Pseudomonas aeruginosa [6]) was over 128 mg/L. For the same compound, the MIC (Pseudomonas aeruginosa [7]) was over 128 mg/L, the MIC (Pseudomonas aeruginosa [8]) was 128 mg/L and the MIC (Pseudomonas aeruginosa [9]) was 128 mg/L. For the same compound, the MIC (Pseudomonas aeruginosa [10]) was over 128 mg/L, the MIC (Pseudomonas aeruginosa [11]) was over 128 mg/L and the MIC (Pseudomonas aeruginosa [12]) was over 128 mg/L. For the same compound, the MIC (Pseudomonas aeruginosa [13]) was 128 mg/L and the MIC (Pseudomonas aeruginosa [14]) was 128 mg/L.
Compound `CC(C)(O/N=C(\C(=O)N[C@@H]1C(=O)N2C(C(=O)[O-])=C(C[n+]3ccccc3)CS[C@H]12)c1csc(N)n1)C(=O)O` [CEFTAZIDIME] has an Activity (Pseudomonas aeruginosa [1]) of 61%, an MIC (Pseudomonas aeruginosa [2]) of over 128 mg/L and an MIC (Pseudomonas aeruginosa [3]) of over 128 mg/L. It also gave an MIC (Pseudomonas aeruginosa [4]) of over 128 mg/L, an MIC (Pseudomonas aeruginosa [5]) of over 128 mg/L and an MIC (Pseudomonas aeruginosa [6]; isolate 4698, Urine) of over 128 mg/L. For the same compound, the MIC (Pseudomonas aeruginosa [7]; isolate 4706, Urine) was over 128 mg/L, the MIC (Pseudomonas aeruginosa [8]) was over 128 mg/L and the MIC (Pseudomonas aeruginosa [9]) was over 128 mg/L. For the same compound, the MIC (Pseudomonas aeruginosa [10]) was over 128 mg/L, the MIC (Pseudomonas aeruginosa [11]) was over 128 mg/L and the MIC (Pseudomonas aeruginosa [12]) was over 128 mg/L. For the same compound, the MIC (Pseudomonas aeruginosa [13]) was over 128 mg/L and the MIC (Pseudomonas aeruginosa [14]; isolate 4663, Urine) was over 128 mg/L.
For `C[C@@H](O)[C@H]1C(=O)N2C(C(=O)O)=C(S[C@@H]3CN[C@H](C(=O)N(C)C)C3)[C@H](C)[C@H]12` [MEROPENEM], the Activity (Pseudomonas aeruginosa [1]) was 87%, the MIC (Pseudomonas aeruginosa [2]) was 128 mg/L (≈ 334 µM) and the MIC (Pseudomonas aeruginosa [3]) was 128 mg/L (≈ 334 µM). The MIC (Pseudomonas aeruginosa [4]) was 128 mg/L (≈ 334 µM), the MIC (Pseudomonas aeruginosa [5]) was 128 mg/L (≈ 334 µM) and the MIC (Pseudomonas aeruginosa [6]; isolate 4698, Urine) was 128 mg/L (≈ 334 µM). It also gave an MIC (Pseudomonas aeruginosa [7]; isolate 4706, Urine) of 128 mg/L (≈ 334 µM), an MIC (Pseudomonas aeruginosa [8]) of 128 mg/L (≈ 334 µM) and an MIC (Pseudomonas aeruginosa [9]) of 128 mg/L (≈ 334 µM). It also gave an MIC (Pseudomonas aeruginosa [10]) of 128 mg/L (≈ 334 µM), an MIC (Pseudomonas aeruginosa [11]) of 128 mg/L (≈ 334 µM) and an MIC (Pseudomonas aeruginosa [12]) of 128 mg/L (≈ 334 µM). The MIC (Pseudomonas aeruginosa [13]) was 128 mg/L (≈ 334 µM) and the MIC (Pseudomonas aeruginosa [14]; isolate 4663, Urine) was over 128 mg/L.
With `C[C@@H](O)[C@H]1C(=O)N2C(C(=O)O)=C(SCCNC=N)C[C@H]12` [IMIPENEM ANHYDROUS] the Activity (Pseudomonas aeruginosa [1]) was 100%, the MIC (Pseudomonas aeruginosa [2]) was over 128 mg/L and the MIC (Pseudomonas aeruginosa [3]) was over 128 mg/L. The MIC (Pseudomonas aeruginosa [4]) was 128 mg/L (≈ 428 µM), the MIC (Pseudomonas aeruginosa [5]) was 128 mg/L (≈ 428 µM) and the MIC (Pseudomonas aeruginosa [6]; isolate 4698, Urine) was over 128 mg/L. It also gave an MIC (Pseudomonas aeruginosa [7]; isolate 4706, Urine) of 32 mg/L (≈ 107 µM), an MIC (Pseudomonas aeruginosa [8]) of 128 mg/L (≈ 428 µM) and an MIC (Pseudomonas aeruginosa [9]) of 128 mg/L (≈ 428 µM). The MIC (Pseudomonas aeruginosa [10]) was over 128 mg/L, the MIC (Pseudomonas aeruginosa [11]) was over 128 mg/L and the MIC (Pseudomonas aeruginosa [12]) was over 128 mg/L. The MIC (Pseudomonas aeruginosa [13]) was 128 mg/L (≈ 428 µM) and the MIC (Pseudomonas aeruginosa [14]; isolate 4663, Urine) was 32 mg/L (≈ 107 µM).
For `C[C@H]1[C@H](NC(=O)/C(=N\OC(C)(C)C(=O)O)c2csc(N)n2)C(=O)N1S(=O)(=O)O` [AZTREONAM], the MIC (Pseudomonas aeruginosa [14]; isolate 4663, Urine) was 8 mg/L (≈ 18.4 µM).
`NCC[C@H](O)C(=O)N[C@@H]1C[C@H](N)[C@@H](O[C@H]2O[C@H](CN)[C@@H](O)[C@H](O)[C@H]2O)[C@H](O)[C@H]1O[C@H]1O[C@H](CO)[C@@H](O)[C@H](N)[C@H]1O` [AMIKACIN] gave an Activity (Pseudomonas aeruginosa [1]) of 51%, an MIC (Pseudomonas aeruginosa [2]) of over 128 mg/L and an MIC (Pseudomonas aeruginosa [3]) of over 128 mg/L. The MIC (Pseudomonas aeruginosa [4]) was over 128 mg/L, the MIC (Pseudomonas aeruginosa [5]) was over 128 mg/L and the MIC (Pseudomonas aeruginosa [6]; isolate 4698, Urine) was over 128 mg/L. It also gave an MIC (Pseudomonas aeruginosa [7]; isolate 4706, Urine) of 64 mg/L (≈ 109 µM), an MIC (Pseudomonas aeruginosa [8]) of over 128 mg/L and an MIC (Pseudomonas aeruginosa [9]) of over 128 mg/L. The MIC (Pseudomonas aeruginosa [10]) was over 128 mg/L, the MIC (Pseudomonas aeruginosa [11]) was 128 mg/L (≈ 219 µM) and the MIC (Pseudomonas aeruginosa [12]) was over 128 mg/L. The MIC (Pseudomonas aeruginosa [13]) was over 128 mg/L and the MIC (Pseudomonas aeruginosa [14]; isolate 4663, Urine) was 4 mg/L (≈ 6.83 µM).
For `CCN1CCN(C(=O)N[C@@H](C(=O)N[C@@H]2C(=O)N3[C@@H]2SC(C)(C)[C@@H]3C(=O)O)c2ccccc2)C(=O)C1=O` [PIPERACILLIN], the MIC (Pseudomonas aeruginosa [15]) was 64 mg/L, the MIC (Pseudomonas aeruginosa [16]) was 64 mg/L and the MIC (Pseudomonas aeruginosa [17]) was 64 mg/L. The MIC (Pseudomonas aeruginosa [18]) was 64 mg/L, the MIC (Pseudomonas aeruginosa [19]) was 64 mg/L and the MIC (Pseudomonas aeruginosa [20]) was 64 mg/L. For the same compound, the MIC (Pseudomonas aeruginosa [21]) was 64 mg/L, the MIC (Pseudomonas aeruginosa [22]) was 64 mg/L and the MIC (Pseudomonas aeruginosa [23]) was 64 mg/L. For the same compound, the MIC (Pseudomonas aeruginosa [24]) was 64 mg/L, the MIC (Pseudomonas aeruginosa [25]) was 64 mg/L and the Activity (Pseudomonas aeruginosa [1]) was 19%. It also gave an Activity (Pseudomonas aeruginosa [26]) of 14%, an MIC (Pseudomonas aeruginosa [2]) of 64 mg/L (≈ 124 µM) and an MIC (Pseudomonas aeruginosa [3]) of 64 mg/L (≈ 124 µM). The MIC (Pseudomonas aeruginosa [4]) was 64 mg/L (≈ 124 µM), the MIC (Pseudomonas aeruginosa [5]) was 64 mg/L (≈ 124 µM) and the MIC (Pseudomonas aeruginosa [6]; isolate 4698, Urine) was 64 mg/L (≈ 124 µM). For the same compound, the MIC (Pseudomonas aeruginosa [7]; isolate 4706, Urine) was 64 mg/L (≈ 124 µM), the MIC (Pseudomonas aeruginosa [8]) was 64 mg/L (≈ 124 µM) and the MIC (Pseudomonas aeruginosa [9]) was 64 mg/L (≈ 124 µM). The MIC (Pseudomonas aeruginosa [10]) was 64 mg/L (≈ 124 µM), the MIC (Pseudomonas aeruginosa [11]) was 64 mg/L (≈ 124 µM) and the MIC (Pseudomonas aeruginosa [12]) was 64 mg/L (≈ 124 µM). The MIC (Pseudomonas aeruginosa [13]) was 64 mg/L (≈ 124 µM), the MIC (Pseudomonas aeruginosa [14]; isolate 4663, Urine) was 64 mg/L (≈ 124 µM) and the MIC (Pseudomonas aeruginosa [27]) was 64 mg/L. The MIC (Pseudomonas aeruginosa [28]) was 64 mg/L.
